Source: PubChem BioAssay (NCI)
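96-well plates; 48 h exposure; 5 concentrations. Endpoints by linear interpolation between flanking doses. Not reached: highest tested concentration assigned. TGI: concentration producing complete growth inhibition.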

Tests used:
Test in all cases: NCI anticancer screen, dose series, 48 h
OVCAR-5 ovarian = test system: OVCAR-5 ovarian
SK-MEL-5 melanoma = test system: SK-MEL-5 melanoma
SF-539 CNS = test system: SF-539 CNS
COLO 205 colon = test system: COLO 205 colon
M14 melanoma = test system: M14 melanoma
SW-620 colon = test system: SW-620 colon
DU-145 prostate = test system: DU-145 prostate
OVCAR-8 ovarian = test system: OVCAR-8 ovarian
NCI-H23 lung = test system: NCI-H23 lung
UACC-62 melanoma = test system: UACC-62 melanoma
HOP-62 NSCLC = test system: HOP-62 NSCLC
MCF7 breast = test system: MCF7 breast
CCRF-CEM leukemia = test system: CCRF-CEM leukemia
SNB-75 CNS = test system: SNB-75 CNS
NCI/ADR-RES ovarian = test system: NCI/ADR-RES ovarian
UO-31 renal = test system: UO-31 renal
U251 CNS = test system: U251 CNS
UACC-257 melanoma = test system: UACC-257 melanoma
OVCAR-4 ovarian = test system: OVCAR-4 ovarian
RPMI-8226 leukemia = test system: RPMI-8226 leukemia
MALME-3M melanoma = test system: MALME-3M melanoma
OVCAR-3 ovarian = test system: OVCAR-3 ovarian
T-47D breast = test system: T-47D breast
HCT-15 colon = test system: HCT-15 colon
786-0 renal = test system: 786-0 renal
HT29 colon = test system: HT29 colon
HL-60(TB) leukemia = test system: HL-60(TB) leukemia
SF-295 CNS = test system: SF-295 CNS
PC-3 prostate = test system: PC-3 prostate
RXF 393 renal = test system: RXF 393 renal
TK-10 renal = test system: TK-10 renal
SK-OV-3 ovarian = test system: SK-OV-3 ovarian
IGROV1 ovarian = test system: IGROV1 ovarian
SN12C renal = test system: SN12C renal
HS 578T breast = test system: HS 578T breast
MDA-MB-435 = test system: MDA-MB-435
ACHN renal = test system: ACHN renal
EKVX NSCLC = test system: EKVX NSCLC
CAKI-1 renal = test system: CAKI-1 renal
SR leukemia = test system: SR leukemia
A498 renal = test system: A498 renal
K-562 leukemia = test system: K-562 leukemia
A549 NSCLC = test system: A549 NSCLC
SF-268 CNS = test system: SF-268 CNS
MOLT-4 leukemia = test system: MOLT-4 leukemia
BT-549 breast = test system: BT-549 breast
LOX IMVI melanoma = test system: LOX IMVI melanoma
HCT-116 colon = test system: HCT-116 colon
SK-MEL-2 melanoma = test system: SK-MEL-2 melanoma
MDA-MB-231 breast = test system: MDA-MB-231 breast
SK-MEL-28 melanoma = test system: SK-MEL-28 melanoma
MDA-N = test system: MDA-N
NCI-H522 lung = test system: NCI-H522 lung
KM12 colon = test system: KM12 colon
NCI-H460 lung = test system: NCI-H460 lung
SNB-19 CNS = test system: SNB-19 CNS
HCC-2998 colon = test system: HCC-2998 colon
HOP-92 NSCLC = test system: HOP-92 NSCLC
NCI-H226 lung = test system: NCI-H226 lung

`OC1(c2ccccc2)CC2CCC(C1)N2CCCC1(c2ccc(F)cc2)OCCO1` (stereo unspecified) was tested, and the TGI (OVCAR-5 ovarian) was > 100 µM, the TGI (SK-MEL-5 melanoma) was 44.3 µM and the TGI (SF-539 CNS) was > 100 µM. For the same compound, the TGI (COLO 205 colon) was > 100 µM, the TGI (M14 melanoma) was 44.9 µM and the TGI (SW-620 colon) was > 100 µM. The TGI (DU-145 prostate) was > 100 µM, the TGI (OVCAR-8 ovarian) was 30.2 µM and the TGI (NCI-H23 lung) was > 100 µM. The TGI (UACC-62 melanoma) was > 100 µM, the TGI (HOP-62 NSCLC) was > 100 µM and the TGI (MCF7 breast) was > 100 µM. For the same compound, the TGI (CCRF-CEM leukemia) was > 100 µM, the TGI (SNB-75 CNS) was > 100 µM and the TGI (NCI/ADR-RES ovarian) was 29.1 µM. The TGI (UO-31 renal) was > 100 µM, the TGI (U251 CNS) was > 100 µM and the TGI (UACC-257 melanoma) was 73.5 µM. For the same compound, the TGI (OVCAR-4 ovarian) was > 100 µM, the TGI (RPMI-8226 leukemia) was > 100 µM and the TGI (MALME-3M melanoma) was > 100 µM. The TGI (OVCAR-3 ovarian) was > 100 µM, the TGI (T-47D breast) was > 100 µM and the TGI (HCT-15 colon) was > 100 µM. For the same compound, the TGI (786-0 renal) was 32.4 µM, the TGI (HT29 colon) was > 100 µM and the TGI (HL-60(TB) leukemia) was > 100 µM. The TGI (SF-295 CNS) was 10.9 µM, the TGI (PC-3 prostate) was > 100 µM and the TGI (RXF 393 renal) was > 100 µM. For the same compound, the TGI (TK-10 renal) was > 100 µM, the TGI (SK-OV-3 ovarian) was > 100 µM and the TGI (IGROV1 ovarian) was > 100 µM. The TGI (SN12C renal) was > 100 µM, the TGI (HS 578T breast) was > 100 µM and the TGI (MDA-MB-435) was > 100 µM. The TGI (ACHN renal) was > 100 µM, the TGI (EKVX NSCLC) was > 100 µM and the TGI (CAKI-1 renal) was > 100 µM. For the same compound, the TGI (SR leukemia) was > 100 µM, the TGI (A498 renal) was > 100 µM and the TGI (K-562 leukemia) was > 100 µM. The TGI (A549 NSCLC) was > 100 µM, the TGI (SF-268 CNS) was > 100 µM and the TGI (MOLT-4 leukemia) was > 100 µM. For the same compound, the TGI (BT-549 breast) was > 100 µM, the TGI (LOX IMVI melanoma) was > 100 µM and the TGI (HCT-116 colon) was > 100 µM. For the same compound, the TGI (SK-MEL-2 melanoma) was > 100 µM, the TGI (MDA-MB-231 breast) was > 100 µM and the TGI (SK-MEL-28 melanoma) was > 100 µM. For the same compound, the TGI (MDA-N) was > 100 µM and the TGI (NCI-H522 lung) was > 100 µM.

For `C=CCN1C(=O)/C(=C/c2ccc(OC)cc2)NC1=S`, the TGI (KM12 colon) was > 100 µM, the TGI (OVCAR-5 ovarian) was > 100 µM and the TGI (SK-MEL-5 melanoma) was > 100 µM. The TGI (SF-539 CNS) was > 100 µM, the TGI (COLO 205 colon) was > 100 µM and the TGI (M14 melanoma) was > 100 µM. For the same compound, the TGI (NCI-H460 lung) was > 100 µM, the TGI (SW-620 colon) was > 100 µM and the TGI (DU-145 prostate) was > 100 µM. For the same compound, the TGI (OVCAR-8 ovarian) was > 100 µM, the TGI (NCI-H23 lung) was > 100 µM and the TGI (UACC-62 melanoma) was > 100 µM. For the same compound, the TGI (HOP-62 NSCLC) was > 100 µM, the TGI (MCF7 breast) was > 100 µM and the TGI (CCRF-CEM leukemia) was 13.1 µM. The TGI (SNB-75 CNS) was > 100 µM, the TGI (NCI/ADR-RES ovarian) was > 100 µM and the TGI (UO-31 renal) was > 100 µM. For the same compound, the TGI (U251 CNS) was > 100 µM, the TGI (SNB-19 CNS) was > 100 µM and the TGI (UACC-257 melanoma) was 78.3 µM. The TGI (OVCAR-4 ovarian) was > 100 µM, the TGI (RPMI-8226 leukemia) was > 100 µM and the TGI (OVCAR-3 ovarian) was > 100 µM. For the same compound, the TGI (T-47D breast) was > 100 µM, the TGI (HCT-15 colon) was > 100 µM and the TGI (786-0 renal) was > 100 µM. For the same compound, the TGI (HT29 colon) was > 100 µM, the TGI (HL-60(TB) leukemia) was 3.81 µM and the TGI (SF-295 CNS) was > 100 µM. The TGI (PC-3 prostate) was > 100 µM, the TGI (RXF 393 renal) was > 100 µM and the TGI (TK-10 renal) was > 100 µM. The TGI (SK-OV-3 ovarian) was > 100 µM, the TGI (IGROV1 ovarian) was > 100 µM and the TGI (SN12C renal) was > 100 µM. For the same compound, the TGI (HS 578T breast) was > 100 µM, the TGI (MDA-MB-435) was > 100 µM and the TGI (ACHN renal) was > 100 µM. The TGI (EKVX NSCLC) was 58.7 µM, the TGI (CAKI-1 renal) was > 100 µM and the TGI (SR leukemia) was > 100 µM. The TGI (A498 renal) was > 100 µM, the TGI (K-562 leukemia) was > 100 µM and the TGI (A549 NSCLC) was > 100 µM. For the same compound, the TGI (SF-268 CNS) was > 100 µM, the TGI (MOLT-4 leukemia) was 25.6 µM and the TGI (HCC-2998 colon) was > 100 µM. For the same compound, the TGI (BT-549 breast) was > 100 µM, the TGI (LOX IMVI melanoma) was > 100 µM and the TGI (HCT-116 colon) was > 100 µM. For the same compound, the TGI (SK-MEL-2 melanoma) was > 100 µM, the TGI (HOP-92 NSCLC) was > 100 µM and the TGI (MDA-MB-231 breast) was > 100 µM. For the same compound, the TGI (SK-MEL-28 melanoma) was > 100 µM, the TGI (MDA-N) was > 100 µM and the TGI (NCI-H226 lung) was > 100 µM. The TGI (NCI-H522 lung) was > 100 µM.
